Measurements published in PubChem BioAssay AID248 (DTP/NCI, 2004).
Several values for one entry are separate records, joined by “and”; a condition that tells them apart may be missing. Equal values may be shown once. Toxic doses and inconclusive results are not listed. Cut-off read from the data, not from the text of the source: active = T/C of 150% or more; inactive = T/C below 125%.

Test system: L1210 leukemia ip in BDF1 mice, survival T/C
Assay: NCI In Vivo Anticancer Drug Screen. Data for tumor model L1210 Leukemia (intraperitoneal) in B6D2F1 (BDF1) mice
Conditions: higher = longer survival
Summary of the method: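 Read-out is survival time, reported as the treated-group measurement over the vehicle-control measurement.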

Measured: T/C

CN(Cc1cnc2nc(N)nc(N)c2n1)c1ccc(C(=O)N[C@@H](CCC(=O)O)C(=O)O)cc1
inactive: endpoint: mean survival time, dose: 0.02 mg/kg/injection, schedule: Q01DX Z (ip), vehicle: saline 94 % of control | endpoint: mean survival time, dose: 0.03 mg/kg/injection, schedule: Q#A X Z (ip), vehicle: saline 107 % of control | endpoint: mean survival time, dose: 0.08 mg/kg/injection, schedule: Q01DX009 (ip), vehicle: sodium bicarbonate 99 % of control and 108 % of control | endpoint: mean survival time, dose: 0.1 mg/kg/injection, schedule: Q03HX008 (ip), vehicle: sodium bicarbonate 105 % of control | endpoint: mean survival time, dose: 0.1 mg/kg/injection, schedule: Q## X008 (other), vehicle: sodium bicarbonate 105 % of control | endpoint: mean survival time, dose: 0.12 mg/kg/injection, schedule: Q01DX Z (ip), vehicle: saline 108 % of control | endpoint: mean survival time, dose: 0.13 mg/kg/injection, schedule: Q01DX Z (sc), vehicle: saline 110 % of control | endpoint: mean survival time, dose: 0.13 mg/kg/injection, schedule: Q03HX016 (ip), vehicle: other 107 % of control | endpoint: mean survival time, dose: 0.15 mg/kg/injection, schedule: Q03HX008 (ip), vehicle: sodium bicarbonate 109 % of control | endpoint: mean survival time, dose: 0.15 mg/kg/injection, schedule: Q## X008 (other), vehicle: sodium bicarbonate 109 % of control | endpoint: mean survival time, dose: 0.19 mg/kg/injection, schedule: Q01DX009 (ip), vehicle: sodium bicarbonate 102 % of control | endpoint: mean survival time, dose: 0.19 mg/kg/injection, schedule: Q## X Z (ip), vehicle: saline 102 % of control | endpoint: mean survival time, dose: 0.38 mg/kg/injection, schedule: Q## X Z (ip), vehicle: saline 111 % of control | endpoint: mean survival time, dose: 0.49 mg/kg/injection, schedule: Q03HX003 (ip), vehicle: other 108 % of control | endpoint: mean survival time, dose: 0.49 mg/kg/injection, schedule: Q03HX004 (ip), vehicle: other 104 % of control | endpoint: mean survival time, dose: 0.49 mg/kg/injection, schedule: Q03HX005 (ip), vehicle: other 107 % of control | endpoint: mean survival time, dose: 0.49 mg/kg/injection, schedule: Q03HX006 (ip), vehicle: other 110 % of control | endpoint: mean survival time, dose: 0.5 mg/kg/injection, schedule: Q01DX006 (iv), vehicle: saline 112 % of control | endpoint: mean survival time, dose: 0.5 mg/kg/injection, schedule: Q07DX003 (ip), vehicle: saline 107 % of control | endpoint: mean survival time, dose: 0.73 mg/kg/injection, schedule: Q01DX001 (ip), vehicle: other 94 % of control | endpoint: mean survival time, dose: 0.73 mg/kg/injection, schedule: Q03HX002 (ip), vehicle: other 104 % of control | endpoint: mean survival time, dose: 0.73 mg/kg/injection, schedule: Q03HX003 (ip), vehicle: other 102 % of control | endpoint: mean survival time, dose: 0.73 mg/kg/injection, schedule: Q03HX004 (ip), vehicle: other 107 % of control | endpoint: mean survival time, dose: 0.73 mg/kg/injection, schedule: Q03HX006 (ip), vehicle: other 109 % of control | endpoint: mean survival time, dose: 0.75 mg/kg/injection, schedule: Q## X Z (ip), vehicle: other 108 % of control | endpoint: mean survival time, dose: 0.9 mg/kg/injection, schedule: Q07DX003 (ip), vehicle: saline 102 % of control | endpoint: mean survival time, dose: 1.1 mg/kg/injection, schedule: Q01DX001 (ip), vehicle: other 95 % of control | endpoint: mean survival time, dose: 1.1 mg/kg/injection, schedule: Q03HX002 (ip), vehicle: other 112 % of control | endpoint: mean survival time, dose: 1.1 mg/kg/injection, schedule: Q03HX003 (ip), vehicle: other 107 % of control | endpoint: mean survival time, dose: 1.1 mg/kg/injection, schedule: Q03HX005 (ip), vehicle: other 109 % of control | endpoint: mean survival time, dose: 1.5 mg/kg/injection, schedule: Q01DX001 (ip), vehicle: water 109 % of control and 110 % of control | endpoint: mean survival time, dose: 1.62 mg/kg/injection, schedule: Q03HX002 (ip), vehicle: other 108 % of control | endpoint: mean survival time, dose: 1.62 mg/kg/injection, schedule: Q03HX003 (ip), vehicle: other 109 % of control | endpoint: mean survival time, dose: 1.8 mg/kg/injection, schedule: Q07DX003 (ip), vehicle: saline 107 % of control | endpoint: mean survival time, dose: 2.0 mg/kg/injection, schedule: Q01DX001 (ip), vehicle: saline 107 % of control | endpoint: mean survival time, dose: 2.25 mg/kg/injection, schedule: Q01DX001 (ip), vehicle: water 111 % of control | endpoint: mean survival time, dose: 2.25 mg/kg/injection, schedule: Q## X006 (ip), vehicle: other 108 % of control | endpoint: mean survival time, dose: 3.4 mg/kg/injection, schedule: Q01DX009 (ip), vehicle: sodium bicarbonate 96 % of control | endpoint: mean survival time, dose: 3.5 mg/kg/injection, schedule: Q07DX003 (ip), vehicle: saline 111 % of control | endpoint: mean survival time, dose: 4.0 mg/kg/injection, schedule: Q01DX009 (ip), vehicle: other 93 % of control | endpoint: mean survival time, dose: 4.0 mg/kg/injection, schedule: Q01DX009 (ip), vehicle: sodium bicarbonate 95 % of control | endpoint: mean survival time, dose: 4.0 mg/kg/injection, schedule: Q01DX Z (oral), vehicle: saline 109 % of control | endpoint: mean survival time, dose: 4.0 mg/kg/injection, schedule: Q01DX Z (sc), vehicle: saline 109 % of control | endpoint: mean survival time, dose: 4.0 mg/kg/injection, schedule: Q12HX007 (ip), vehicle: other 109 % of control | endpoint: mean survival time, dose: 4.0 mg/kg/injection, schedule: Q#A X Z (ip), vehicle: saline 112 % of control | endpoint: mean survival time, dose: 5.0 mg/kg/injection, schedule: Q01DX009 (ip), vehicle: sodium bicarbonate 105 % of control | endpoint: mean survival time, dose: 6.0 mg/kg/injection, schedule: Q12HX005 (ip), vehicle: other 104 % of control | endpoint: mean survival time, dose: 6.0 mg/kg/injection, schedule: Q12HX006 (ip), vehicle: other 102 % of control | endpoint: mean survival time, dose: 6.3 mg/kg/injection, schedule: Q01DX009 (ip), vehicle: saline 108 % of control | endpoint: mean survival time, dose: 7.2 mg/kg/injection, schedule: Q## X032 (ip), vehicle: water 102 % of control | endpoint: mean survival time, dose: 8.0 mg/kg/injection, schedule: Q01DX006 (ip), vehicle: other 110 % of control | endpoint: mean survival time, dose: 8.0 mg/kg/injection, schedule: Q01DX007 (ip), vehicle: other 111 % of control | endpoint: mean survival time, dose: 8.0 mg/kg/injection, schedule: Q01DX008 (ip), vehicle: other 100 % of control | endpoint: mean survival time, dose: 8.0 mg/kg/injection, schedule: Q01DX009 (oral), vehicle: other 107 % of control | endpoint: mean survival time, dose: 8.0 mg/kg/injection, schedule: Q01DX015 (ip), vehicle: other 102 % of control | endpoint: mean survival time, dose: 8.0 mg/kg/injection, schedule: Q01DX Z (oral), vehicle: saline 97 % of control | endpoint: mean survival time, dose: 9.0 mg/kg/injection, schedule: Q01DX005 (ip), vehicle: other 100 % of control | endpoint: mean survival time, dose: 9.0 mg/kg/injection, schedule: Q12HX004 (ip), vehicle: other 111 % of control | endpoint: mean survival time, dose: 9.0 mg/kg/injection, schedule: Q## X008 (ip), vehicle: other 102 % of control | endpoint: mean survival time, dose: 13.0 mg/kg/injection, schedule: Q01DX004 (ip), vehicle: other 101 % of control | endpoint: mean survival time, dose: 13.0 mg/kg/injection, schedule: Q01DX005 (ip), vehicle: other 102 % of control | endpoint: mean survival time, dose: 13.0 mg/kg/injection, schedule: Q03HX005 (ip), vehicle: other 100 % of control | endpoint: mean survival time, dose: 13.0 mg/kg/injection, schedule: Q12HX004 (ip), vehicle: other 94 % of control | endpoint: mean survival time, dose: 13.5 mg/kg/injection, schedule: Q## X008 (ip), vehicle: other 93 % of control | endpoint: mean survival time, dose: 16.0 mg/kg/injection, schedule: Q03HX008 (ip), vehicle: other 98 % of control | endpoint: mean survival time, dose: 20.0 mg/kg/injection, schedule: Q01DX003 (ip), vehicle: other 101 % of control | endpoint: mean survival time, dose: 20.0 mg/kg/injection, schedule: Q## X008 (ip), vehicle: other 102 % of control | endpoint: mean survival time, dose: 30.0 mg/kg/injection, schedule: Q01DX003 (ip), vehicle: other 102 % of control | endpoint: mean survival time, dose: 30.0 mg/kg/injection, schedule: Q04DX004 (ip), vehicle: other 96 % of control | endpoint: mean survival time, dose: 32.0 mg/kg/injection, schedule: Q01DX001 (sc), vehicle: other 112 % of control | endpoint: mean survival time, dose: 40.0 mg/kg/injection, schedule: Q04DX003 (ip), vehicle: sodium bicarbonate 95 % of control | endpoint: mean survival time, dose: 45.0 mg/kg/injection, schedule: Q01DX002 (ip), vehicle: other 109 % of control | endpoint: mean survival time, dose: 67.0 mg/kg/injection, schedule: Q01DX002 (ip), vehicle: other 98 % of control | endpoint: mean survival time, dose: 67.0 mg/kg/injection, schedule: Q12HX002 (ip), vehicle: other 100 % of control | endpoint: mean survival time, dose: 70.0 mg/kg/injection, schedule: Q04DX002 (ip), vehicle: sodium bicarbonate 99 % of control | endpoint: mean survival time, dose: 112.0 mg/kg/injection, schedule: Q07DX003 (ip), vehicle: saline 97 % of control | endpoint: mean survival time, dose: 128.0 mg/kg/injection, schedule: Q01DX001 (oral), vehicle: other 108 % of control | endpoint: mean survival time, dose: 150.0 mg/kg/injection, schedule: Q03HX002 (ip), vehicle: other 93 % of control | endpoint: mean survival time, dose: 200.0 mg/kg/injection, schedule: Q04DX002 (ip), vehicle: saline 111 % of control | endpoint: mean survival time, dose: 250.0 mg/kg/injection, schedule: Q01DX001 (ip), vehicle: water 112 % of control | endpoint: mean survival time, dose: 256.0 mg/kg/injection, schedule: Q01DX001 (oral), vehicle: other 97 % of control | endpoint: mean survival time, dose: 256.0 mg/kg/injection, schedule: Q01DX001 (sc), vehicle: other 98 % of control | endpoint: mean survival time, dose: 300.0 mg/kg/injection, schedule: Q01DX001 (ip), vehicle: water 105 % of control | endpoint: mean survival time, dose: 375.0 mg/kg/injection, schedule: Q01DX001 (ip), vehicle: water 101 % of control | endpoint: mean survival time, dose: 512.0 mg/kg/injection, schedule: Q01DX001 (oral), vehicle: other 111 % of control | endpoint: mean survival time, dose: 37.5 micrograms/kg/injection, schedule: Q01DX009 (ip), vehicle: saline 104 % of control and 110 % of control | endpoint: mean survival time, dose: 70.0 micrograms/kg/injection, schedule: Q01DX Z (ip), vehicle: carboxymethylcellulose (CMC) 97 % of control | endpoint: mean survival time, dose: 75.0 micrograms/kg/injection, schedule: Q01DX009 (ip), vehicle: saline 107 % of control and 110 % of control | endpoint: mean survival time, dose: 100.0 micrograms/kg/injection, schedule: Q01DX015 (ip), vehicle: other 105 % of control | endpoint: mean survival time, dose: 140.0 micrograms/kg/injection, schedule: Q01DX Z (ip), vehicle: carboxymethylcellulose (CMC) 110 % of control | endpoint: mean survival time, dose: 150.0 micrograms/kg/injection, schedule: Q01DX015 (ip), vehicle: other 108 % of control | endpoint: mean survival time, dose: 6000.0 micrograms/kg/injection, schedule: Q01DX009 (ip), vehicle: Klucel (hydroxypropylcellulose) (HPC) 100 % of control | endpoint: median survival time, dose: 5.0 mg/kg/injection, schedule: Q01DX009 (ip), vehicle: other 110 % of control | endpoint: median survival time, dose: 8.0 mg/kg/injection, schedule: Q01DX001 (ip), vehicle: sodium bicarbonate 111 % of control | endpoint: median survival time, dose: 32.0 mg/kg/injection, schedule: Q01DX001 (ip), vehicle: sodium bicarbonate 110 % of control
